Measured values reported in US8580965B2, “Substituted sulfonamide compounds” (Gruenenthal GmbH, priority 2006, dated 2013).

Target: T1, human B1R receptor (bradykinin 1 receptor) (Homo sapiens, UniProt P46663)
T1 construct: host or cells: CHO K1 cells (hB1R cells)
T1 sequence (P46663 1-353): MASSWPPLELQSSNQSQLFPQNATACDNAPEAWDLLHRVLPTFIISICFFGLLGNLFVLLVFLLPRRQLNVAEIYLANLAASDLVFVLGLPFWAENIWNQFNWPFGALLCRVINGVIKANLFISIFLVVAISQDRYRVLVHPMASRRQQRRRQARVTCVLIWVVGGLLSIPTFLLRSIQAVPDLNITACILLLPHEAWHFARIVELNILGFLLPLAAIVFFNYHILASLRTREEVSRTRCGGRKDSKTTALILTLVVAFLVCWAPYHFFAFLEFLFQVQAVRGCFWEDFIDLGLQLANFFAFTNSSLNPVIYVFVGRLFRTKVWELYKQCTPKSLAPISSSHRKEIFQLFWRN
Assay: FLIPR Ca2+ assay (Fluo-4) on CHO K1 cells stably transfected with the human B1R gene; % activation and % inhibition at 10 μM
Format: cell-based
Conditions: CHO-K1, test substance 10 μM; CHO K1 hB1R cells; Ca2+ inflow after 0.5 nM Lys-Des-Arg9-bradykinin; read-out: B1R antagonism, human [10 μM] % inhibition
Protocol: The agonistic or antagonistic action of substances can be quantified on the bradykinin receptor 1 (B1R) of the species human and rat with ectopically expressing cell lines (CHO K1 cells) and with the aid of a Ca^2+-sensitive dye (Fluo-4) using a fluorescent imaging plate reader (FLIPR). The indication in % activation is based on the Ca^2+ signal after addition of Lys-Des-Arg^9-bradykinin (0.5 nM) or Des-Arg^9-bradykinin (100 nM). Antagonists result in a suppression of the Ca^2+ influx following administration of the agonist. The % inhibition in comparison with the maximum achievable inhibition is indicated.
Functional Investigation on the Bradykinin 1 Receptor (B1R)
The agonistic or antagonistic action of substances can be determined on the bradykinin 1 receptor (B1R) of the human and rat species with the following assay. According to this assay, the Ca^2+ inflow through the channel is quantified with the aid of a Ca^2+-sensitive dyes (Fluo-4 type, Molecular Probes Europe BV, Leiden, The Netherlands) in a fluorescent imaging plate reader (FLIPR, Molecular Devices, Sunnyvale, USA).
Chinese Hamster Ovary cells (CHO K1 cells) which are stably transfected with the human B1R gene (hB1R cells, Euroscreen s.a., Gosselies, Belgium) or the B1R gene of the rat (rB1R cells, Axxam, Milan, Italy) are used. For functional investigations, these cells are plated-out on black 96-well plates with a clear base (BD Biosciences, Heidelberg, Germany) in a density of 20,000-25,000 cells/well. Overnight, the cells are incubated at 37° C. and 5% CO2 in culture medium (hB1R cells: Nutrient Mixture Ham's F12, Gibco Invitrogen GmbH, Karlsruhe, Germany; rB1R cells: D-MEM/F12, Gibco Invitrogen, Karlsruhe, Germany) with 10 vol. % FBS (foetal bovine serum, Gibco Invitrogen GmbH, Karlsruhe, Germany). On the following day, the cells are loaded with 2.13 μM Fluo-4 (Molecular Probes Europe BV, Leiden, The Netherlands) in HBSS buffer (Hank's buffered saline solution, Gibco Invitrogen GmbH, Karlsruhe, Germany) […] (Sigma-Aldrich, Taufkirchen, Germany) and 10 mM HEPES (Sigma-Aldrich, Taufkirchen, Germany) for 60 min at 37° C. The plates are subsequently washed 2× with HBSS buffer, and HBSS buffer which additionally contains 0.1% BSA (bovine serum albumin; Sigma-Aldrich, Taufkirchen, Germany), 5.6 mM glucose and 0.05% gelatine (Merck KGaA, Darmstadt, Germany) is added. After a further incubation of 20 minutes at room temperature, the plates are inserted into the FLIPR for Ca^2+ measurement. The Ca^2+-dependent fluorescence is measured here before and after addition of substances (λex=488 nm, λem=540 nm). The quantification is effected by measurement of the highest fluorescence intensity (FC, fluorescence counts) over time.
The FLIPR protocol comprises 2 additions of substance. Test substances (10 μM) are first pipetted on to the cells and the Ca^2+ inflow is compared with the control (hB1R: Lys-Des-Arg^9-bradykinin 0.5 nM; rB1R: Des-Arg^9-bradykinin 100 nM). The value in % activation based on the Ca^2+ signal after addition of Lys-Des-Arg^9-bradykinin (0.5 nM) or Des-Arg^9-bradykinin (100 nM) is obtained therefrom. After incubation for 10 minutes, 0.5 nM Lys-Des-Arg^9-bradykinin (hB1R) or 100 nM Des-Arg^9-bradykinin (rB1R) are applied and the inflow of Ca^2+ is likewise determined. Antagonists lead to a suppression of the Ca^2+ inflow. % inhibition compared with the maximum inhibition which can be achieved is calculated. The compounds show a good activity on the human and on the rat receptor. The following data were determined by way of example: […]

inhibition at 10 µM | SMILES
-3.95% | COc1cc(C)c(S(=O)(=O)N2CCN(CCOCC(=O)N3CCC(O)(c4cccnc4)CC3)CC2)c(C)c1C [Example 47, 1-(4′-hydroxy-3′,4′,5′,6′-tetrahydro-2′H-[3,4′]bipyridinyl-1′-yl)-2-{2-[4-(4-methoxy-2,3,6-trimethyl-phenylsulfonyl)-piperazin-1-yl]-ethoxy}-ethanone]
-4.32% | COc1cc(C)c(S(=O)(=O)N2CCN(CCOCC(=O)N3CCC(O)(c4ccccn4)CC3)CC2)c(C)c1C [Example 48, 1-(4′-hydroxy-3′,4′,5′,6′-tetrahydro-2′H-[2,4′]bipyridinyl-1′-yl)-2-{2-[4-(4-methoxy-2,3,6-trimethyl-phenylsulfonyl)-piperazin-1-yl]-ethoxy}-ethanone]
-11.4% | O=C(COCC1CCCCN1S(=O)(=O)c1ccc(Cl)cc1)N1CCC(O)(Cc2ccccc2)CC1 (stereo not drawn) [Example 53, 1-(4-benzyl-4-hydroxy-piperidin-1-yl)-2-[1-(4-chloro-phenylsulfonyl)-piperidin-2-ylmethoxy]-ethanone]
-13.1% | O=C(COC1CCN(S(=O)(=O)c2ccccc2)CC1)N1CCC(O)(c2ccccn2)CC1 [Example 54, 2-(1-phenylsulfonyl-piperidin-4-yloxy)-1-(4′-hydroxy-3′,4′,5′,6′-tetrahydro-2′H-[2,4′]bipyridinyl-1′-yl)-ethanone]
-13.2% | COc1cc(C)c(S(=O)(=O)N2CCCC(OCC(=O)N3CCC(O)(c4ccccn4)CC3)C2)c(C)c1C (stereo not drawn) [Example 55, 1-(4′-hydroxy-3′,4′,5′,6′-tetrahydro-2′H-[2,4′]bipyridinyl-1′-yl)-2-[1-(4-methoxy-2,3,6-trimethyl-phenylsulfonyl)-piperidin-3-yloxy]-ethanone]
-16.2% | COc1ccc(S(=O)(=O)N2CCCC2COCC(=O)N2CCC(O)(Cc3ccccc3)CC2)cc1 (stereo not drawn) [Example 57, 1-(4-benzyl-4-hydroxy-piperidin-1-yl)-2-[1-(4-methoxy-phenylsulfonyl)-pyrrolidin-2-ylmethoxy]-ethanone]
-44% | COc1ccc(S(=O)(=O)N2CCCCC2COCC(=O)N2CCC(O)(Cc3ccccc3)CC2)c(OC)c1 (stereo not drawn) [Example 60, 1-(4-benzyl-4-hydroxy-piperidin-1-yl)-2-[1-(2,4-dimethoxy-phenylsulfonyl)-piperidin-2-ylmethoxy]-ethanone]
102% | COc1cc(C)c(S(=O)(=O)N(C)CCCC(=O)N2CCC(O)(c3cccnc3)CC2)c(C)c1 [Example 114, N-(4-(4-hydroxy-4-(pyridin-3-yl)piperidin-1-yl)-4-oxobutyl)-4-methoxy-N,2,6-trimethylphenylsulfonamide]
91.2% | CN(CCCC(=O)N1CCC(O)(c2cccnc2)CC1)S(=O)(=O)c1ccc(Cl)cc1Cl [Example 116, 2,4-dichloro-N-(4-(4-hydroxy-4-(pyridin-3-yl)piperidin-1-yl)-4-oxobutyl)-N-methylphenylsulfonamide]
61.5% | COc1cc(C)c(S(=O)(=O)N2CCCCC2COCCC(=O)N2CCC(O)(Cc3ccccc3)CC2)c(C)c1 (stereo not drawn) [Example 179, 1-(4-benzyl-4-hydroxypiperidin-1-yl)-3-((1-(4-methoxy-2,6-dimethylphenylsulfonyl)piperidin-2-yl)methoxy)propan-1-one]
39.9% | COc1cc(C)c(S(=O)(=O)N2CCCCC2COCCC(=O)N2CCC(O)(c3ccc(Cl)c(C(F)(F)F)c3)CC2)c(C)c1 (stereo not drawn) [Example 180, 1-(4-(4-chloro-3-(trifluoromethyl)phenyl)-4-hydroxypiperidin-1-yl)-3-((1-(4-methoxy-2,6-dimethylphenylsulfonyl)piperidin-2-yl)methoxy)propan-1-one]
75.4% | COc1cc(C)c(S(=O)(=O)N2CCCCC2COCCC(=O)N2CCC(O)(c3ccc(Cl)cc3)CC2)c(C)c1 (stereo not drawn) [Example 181, 1-(4-(4-chlorophenyl)-4-hydroxypiperidin-1-yl)-3-((1-(4-methoxy-2,6-dimethylphenylsulfonyl)piperidin-2-yl)methoxy)propan-1-one]
80% | COc1cc(C)c(S(=O)(=O)N2CCCCC2COCCC(=O)N2CCC(O)(c3ccc(Br)cc3)CC2)c(C)c1 (stereo not drawn) [Example 182, 1-(4-(4-bromophenyl)-4-hydroxypiperidin-1-yl)-3-((1-(4-methoxy-2,6-dimethylphenylsulfonyl)piperidin-2-yl)methoxy)propan-1-one]
68.2% | COc1cc(C)c(S(=O)(=O)N2CCCCC2COCCC(=O)N2CCC(O)(c3ccccc3)CC2)c(C)c1 (stereo not drawn) [Example 183, 1-(4-hydroxy-4-phenylpiperidin-1-yl)-3-((1-(4-methoxy-2,6-dimethylphenylsulfonyl)piperidin-2-yl)methoxy)propan-1-one]
56.1% | COc1cc(C)c(S(=O)(=O)N2CCCC(OCCC(=O)N3CCC(O)(c4ccc(Cl)cc4)CC3)C2)c(C)c1 (stereo not drawn) [Example 184, 1-(4-(4-chlorophenyl)-4-hydroxypiperidin-1-yl)-3-(1-(4-methoxy-2,6-dimethylphenylsulfonyl)piperidin-3-yloxy)propan-1-one]
54.6% | COc1cc(C)c(S(=O)(=O)N2CCCC(OCCC(=O)N3CCC(O)(c4ccc(Br)cc4)CC3)C2)c(C)c1 (stereo not drawn) [Example 185, 1-(4-(4-bromophenyl)-4-hydroxypiperidin-1-yl)-3-(1-(4-methoxy-2,6-dimethylphenylsulfonyl)piperidin-3-yloxy)propan-1-one]
99.8% | COc1cc(C)c(S(=O)(=O)N2CCC(OCCC(=O)N3CCC(O)(c4ccc(Cl)cc4)CC3)C2)c(C)c1 (stereo not drawn) [Example 186, 1-(4-(4-chlorophenyl)-4-hydroxypiperidin-1-yl)-3-(1-(4-methoxy-2,6-dimethylphenylsulfonyl)pyrrolidin-3-yloxy)propan-1-one]
99.9% | COc1cc(C)c(S(=O)(=O)N2CCC(OCCC(=O)N3CCC(O)(c4ccc(Br)cc4)CC3)C2)c(C)c1 (stereo not drawn) [Example 187, 1-(4-(4-bromophenyl)-4-hydroxypiperidin-1-yl)-3-(1-(4-methoxy-2,6-dimethylphenylsulfonyl)pyrrolidin-3-yloxy)propan-1-one]
52.7% | COc1cc(C)c(S(=O)(=O)N2CCC(OCCC(=O)N3CCC(O)(c4ccccc4)CC3)C2)c(C)c1 (stereo not drawn) [Example 188, 1-(4-hydroxy-4-phenylpiperidin-1-yl)-3-(1-(4-methoxy-2,6-dimethylphenylsulfonyl)pyrrolidin-3-yloxy)propan-1-one]
54.2% | COc1cc(C)c(S(=O)(=O)N2CCC(OCCC(=O)N3CCC(O)(Cc4ccccc4)CC3)C2)c(C)c1 (stereo not drawn) [Example 189, 1-(4-benzyl-4-hydroxypiperidin-1-yl)-3-(1-(4-methoxy-2,6-dimethylphenylsulfonyl)pyrrolidin-3-yloxy)propan-1-one]
103% | COc1cc(C)c(S(=O)(=O)N2CCC(OCCC(=O)N3CCC(O)(c4cccc(C(F)(F)F)c4)CC3)C2)c(C)c1 (stereo not drawn) [Example 190, 1-(4-hydroxy-4-(3-(trifluoromethyl)phenyl)piperidin-1-yl)-3-(1-(4-methoxy-2,6-dimethylphenylsulfonyl)pyrrolidin-3-yloxy)propan-1-one]
